Each molecule was assayed against 5-HT4 receptors (Homo sapiens (Human), UniProt Q13639) (assay: Determination of EC50 values for 5-HT4 receptor (pCRE-Luc reporter assay)). Conditions: CHO cells expressing recombinant human 5-HT4 receptor and pCRE-Luc reporter; 4 h incubation; luciferase activity.
5-HT4 receptors, sequence (Q13639 whole entry): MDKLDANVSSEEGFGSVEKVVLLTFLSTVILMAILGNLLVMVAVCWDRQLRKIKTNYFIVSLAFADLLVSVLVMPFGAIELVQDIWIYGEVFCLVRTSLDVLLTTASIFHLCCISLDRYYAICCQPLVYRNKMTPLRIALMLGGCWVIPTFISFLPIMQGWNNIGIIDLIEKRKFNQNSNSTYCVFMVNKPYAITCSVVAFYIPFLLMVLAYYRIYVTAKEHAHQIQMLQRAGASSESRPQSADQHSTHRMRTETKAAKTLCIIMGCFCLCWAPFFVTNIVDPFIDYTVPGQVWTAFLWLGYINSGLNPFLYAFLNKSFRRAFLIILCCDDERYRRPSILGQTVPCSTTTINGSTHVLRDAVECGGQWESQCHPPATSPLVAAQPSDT
Type: cell-based
Procedure: A stable CHO cell line expressing recombinant human 5-HT4 receptor and pCRE-Luc reporter system was used for cell-based assay. The assay offers a non-radioactive based approach to determine binding of a compound to GPCRs. In this specific assay, the level of intracellular cyclic AMP, which is modulated by activation, or inhibition of the receptor is measured. The recombinant cells harbor luciferase reporter gene under the control of cAMP response element.
The above cells were grown in 96 well clear bottom white plates in Ham's F12 medium containing 10% fetal bovine serum. Prior to the addition of compounds or standard agonist, cells were serum starved overnight. Increasing concentrations of test compounds were added to the cells in OptiMEM medium. The incubation was continued in CO2 incubator at 37° C. with 5% CO2 conditions for 4 h. Medium was removed and cells were washed with phosphate buffered saline. The cells were lysed and luciferase activity was measured in a Luminometer. Concentration-response data was generated using the luciferase assay, following incubation of cells with receptor ligands, were analyzed by subtracting basal levels (i.e. with medium alone), then normalizing values as a percentage of controls (endogenous agonist serotonin (10 μM)). […] EC50 values of the compounds were defined as the concentration required in stimulating the luciferase activity by 50%.
Work on `COC(=O)NCCCN1C2CCC1CC(NC(=O)c1cc3cccn3n(C(C)C)c1=O)C2` (centres unmarked) [Example 33, N-{8-[3-Carbomethoxyaminopropyl]-8-azabicyclo[3.2.1]oct-3-yl} [1-isopropyl-2-oxo-1,2-dihydro pyrrolo[1,2-b]pyridazin]-3-carboxamide] yielded an EC50 of 12 nM. Work on `CC(C)n1c(=O)c(C(=O)NC2CC3CCC(C2)N3C[C@H](O)CN(C)S(C)(=O)=O)cc2cccn21` (single isomer, unassigned) [Example 3] yielded an EC50 of 9 nM. Molecule `CC(C)n1c(=O)c(C(=O)NC2CC3CCC(C2)N3CC(O)CN(C)S(C)(=O)=O)cc2cccn21` (racemic) [Example 5, Racemic-N-{8-[2-Hydroxy-3-[(N-methyl)methanesulfonamido]propyl]-8-azabicyclo[3.2.1]oct-3-yl} [1-isopropyl-2-oxo-1,2-dihydro pyrrolo[1,2-b]pyridazine]-3-carboxamide] has an EC50 of 3.1 nM. `CC(C)n1c(=O)c(C(=O)NC2CC3CCC(C2)N3CCCNS(C)(=O)=O)cc2cccn21` [Example 24, N-{8-[3-[methanesulfonamido]propyl]-8-azabicyclo[3.2.1]oct-3-yl} [1-isopropyl-2-oxo-1,2-dihydro pyrrolo[1,2-b]pyridazine]-3-carboxamide L-(+)-tartarate] was tested, and the EC50 was 11 nM. `CC(C)n1c(=O)c(C(=O)NC2CC3CCC(C2)N3C[C@@H](O)CN2CCN(S(C)(=O)=O)CC2)c(O)c2cccn21` (stereo partly drawn) [Example 20, (R)-N-{8-[2-Hydroxy-3-[(1-methanesulfonylpiperazin)-4-yl]propyl]-8-azabicyclo[3.2.1]oct-3-yl} [4-hydroxy-1-isopropyl-2-oxo-1,2-dihydro pyrrolo[1,2-b]pyridazin]-3-carboxamide L-(+)-tartarate] was tested, and the EC50 was 14 nM. `CC(C)n1c(=O)c(C(=O)NC2CC3CCC(C2)N3C[C@@H](O)CN2CCN(S(C)(=O)=O)CC2)cc2cccn21` (stereo partly drawn) [Example 18, (R)-N-{8-[2-Hydroxy-3-[(1-methanesulfonylpiperazin)-4-yl]propyl]-8-azabicyclo[3.2.1]oct-3-yl} [1-isopropyl-2-oxo-1,2-dihydro pyrrolo[1,2-b]pyridazin]-3-carboxamide L(+)tartarate] was tested, and the EC50 was 2.4 nM. `CC(C)n1c(=O)c(C(=O)NC2CC3CCC(C2)N3CCNS(=O)(=O)C(C)C)cc2cccn21` (centres unmarked) [Example 29, N-{8-[2-Isopropylsulfonylaminoethyl]-8-azabicyclo[3.2.1]oct-3-yl} [1-isopropyl-2-oxo-1,2-dihydro pyrrolo[1,2-b]pyridazin]-3-carboxamide] gave an EC50 of 16 nM. With `CC(C)n1c(=O)c(C(=O)NC2CC3CCC(C2)N3C[C@@H](O)CN(C)S(C)(=O)=O)c(O)c2cccn21` (stereo partly drawn) [Example 8, (R)-N-{8-[2-Hydroxy-3-[(N-methyl)methanesulfonamido]propyl]-8-azabicyclo[3.2.1]oct-3-yl} [4-hydroxy-1-isopropyl-2-oxo-1,2-dihydro pyrrolo[1,2-b]pyridazine]-3-carboxamide L-(+)-tartarate] the EC50 was 6.1 nM. For `CC(=O)NCCCN1C2CCC1CC(NC(=O)c1cc3cccn3n(C(C)C)c1=O)C2` (centres unmarked) [Example 31, N-{8-[3-Acetamidopropyl]-8-azabicyclo[3.2.1]oct-3-yl} [1-isopropyl-2-oxo-1,2-dihydro pyrrolo[1,2-b]pyridazin]-3-carboxamide], the EC50 was 35.1 nM. With `CC(=O)N1CCN(CCN2C3CCC2CC(NC(=O)c2cc4cccn4n(C(C)C)c2=O)C3)CC1` [Example 38, N-{8-[2-(4-Acetylpiperazin-1-yl)ethyl]-8-azabicyclo[3.2.1]oct-3-yl} [1-isopropyl-2-oxo-1,2-dihydro pyrrolo[1,2-b]pyridazine]-3-carboxamide L-(+)-tartrate] the EC50 was 15.4 nM. `CC(C)n1c(=O)c(C(=O)NC2CC3CCC(C2)N3C[C@@H](O)CNS(C)(=O)=O)cc2cccn21` (stereo partly drawn) [Example 14, (R)-N-{8-[2-Hydroxy-3-(methanesulfonamido)propyl]-8-azabicyclo[3.2.1]oct-3-yl} [1-isopropyl-2-oxo-1,2-dihydro pyrrolo[1,2-b]pyridazine]-3-carboxamide L-(+)-tartarate] showed an EC50 of 6.3 nM.
